In patent US20100137275A1 (IPSEN PHARMA S.A.S., priority 2007, published 2010):
Like-named read-outs stand apart in the source and are kept apart here.

Key:
[1] = molecular target: T1, purified recombinant Cdc25-C enzyme (MBP-Cdc25C protein) (Homo sapiens, UniProt P30307); assay: Phosphatase activity of the purified recombinant Cdc25C enzyme (OMFP dephosphorylation, fluorescence); format: biochemical; details: OMFP 500 μM, 4 hours at 30° C.
T1 construct: made in house
T1 sequence (P30307 1-473): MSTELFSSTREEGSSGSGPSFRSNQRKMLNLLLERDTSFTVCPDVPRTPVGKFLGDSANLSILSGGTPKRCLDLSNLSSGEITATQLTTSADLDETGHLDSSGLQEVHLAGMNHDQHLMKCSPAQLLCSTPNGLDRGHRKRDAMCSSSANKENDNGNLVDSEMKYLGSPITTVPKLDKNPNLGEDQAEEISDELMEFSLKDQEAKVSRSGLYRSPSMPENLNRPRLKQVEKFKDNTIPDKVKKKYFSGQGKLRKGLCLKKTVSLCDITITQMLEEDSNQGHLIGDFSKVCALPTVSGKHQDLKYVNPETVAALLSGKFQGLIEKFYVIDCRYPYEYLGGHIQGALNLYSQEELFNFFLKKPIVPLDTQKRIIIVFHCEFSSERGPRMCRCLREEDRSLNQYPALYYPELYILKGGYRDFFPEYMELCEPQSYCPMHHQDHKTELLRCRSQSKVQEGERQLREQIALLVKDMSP
Experimental: The phosphatase activity of the MBP-Cdc25C protein is evaluated through its dephosphorylation of 3-O-methylfluorescein-phosphate (OMFP) to form 3-O-methylfluorescein (OMF), determining the fluorescence of the reaction product at 475 nm. This assay can be used to identify inhibitors of the recombinant Cdc25 enzyme. The preparation of the MBP-Cdc25C fusion protein is described in patent application PCT WO 01/44467.
The reaction is performed in 384-well plates in a final volume of 50 μl. The MBP-Cdc25C protein (prepared as described hereinabove) is stored in the following elution buffer: 20 mM Tris-HCl pH 7.4; 250 mM NaCl; 1 mM EDTA; 1 mM dithiothreitol (DTT); 10 mM maltose. It is diluted to a concentration of 60 μM in the following reaction buffer: 50 mM Tris-HCl pH 8.2; 50 mM NaCl; 1 mM DTT; 20% glycerol. The background noise is determined using with the buffer without addition of the enzyme. The products are tested at decreasing concentrations from 40 μM. The reaction is initiated by the addition of a solution OMFP to a final concentration of 500 μM (prepared immediately before use from a 12.5 mM stock solution in 100% DMSO (Sigma #M2629)). After 4 hours at 30° C. in a disposable 384-well plate, the fluorescence measured at OD 475 nm is read on a Victor^2 plate reader (EGG-Wallac). The concentration that produces 50% inhibition of the enzyme reaction is calculated from three independent experiments. Only the values that fall within the linear part of the sigmoid curve are used for the linear regression analysis.

[2] = tested on: DU145 (human prostate cancer cells); assay: Anti-proliferative activity on DU-145 cell line (WST1 colorimetric test); format: cell-based; details: read-out: IC50 on the proliferation of the DU-145 cell line
Experimental: By way of an example, the effect of treating two human cell lines Mia-Paca2 and DU145 with the compounds of the examples described hereinbefore will be studied. The cell lines DU145 (human prostate cancer cells) and Mia-PaCa2 (human pancreas cancer cells) were obtained from the American Tissue Culture Collection (Rockville, Md., USA). A 96-well plate was inoculated on day 0 with cells placed in 80 μl of Dulbecco's modified Eagle's medium (Gibco-Brl, Cergy-Pontoise, France) with 10% heat-inactivated foetal calf serum (Gibco-Brl, Cergy-Pontoise, France), 50000 units/1 of penicillin and 50 mg/l of streptomycin (Gibco-Brl, Cergy-Pontoise, France), and 2 mM of glutamine (Gibco-Brl, Cergy-Pontoise, France). The cells were treated on day 1 with increasing concentrations of each test compound up to 10 μM for 96 hours. At the end of this period, cell proliferation is quantified by means of a colorimetric test based on cleavage of the tetrazolium salt WST1 by the mitochondrial dehydrogenases in the viable cells, resulting in formation of formazan (Boehringer Mannheim, Meylan, France). These tests are performed in duplicate with 8 determinations per concentration tested. For each compound to be tested, the values within the linear part of the sigmoid curve were subjected to linear regression analysis and used to estimate the IC50 inhibitory concentration. The products are solubilised in dimethylsulfoxide (DMSO) at a concentration of 10^−2 M and used in culture with a final DMSO concentration of 0.1%.

IC50 [1] [µM] | melting point [°C] | IC50 ([2]; DU-145, 96 h, 96 hours treatment) [µM] | SMILES | IC50 ([2]; DU-145, 96 hours treatment) [µM]
≤ 1 | 127 to 129 |  | CN(CCNC(=S)Nc1ccc(Cl)cc1)CCNc1cc(N2CCCC2)nc(N2CCCC2)n1 [Example 22, N-(4-chlorophenyl)-N′-{2-[{2-[(2,6-dipyrrolidin-1-ylpyrimidin-4-yl)amino]ethyl}(methyl)amino]ethyl}thiourea] | 
≤ 1 | 107 to 109 |  | CN(CCNC(=S)Nc1ccc(C#N)cc1)CCNc1cc(N2CCCC2)nc(N2CCCC2)n1 [Example 77, N-(4-cyanophenyl)-N′-{2-[{2-[(2,6-dipyrrolidin-1-ylpyrimidin-4-yl)amino]ethyl}(methyl)amino]ethyl}thiourea] | 
≤ 5 | 148 to 150 |  | CN(CCNC(=S)Nc1ccc(Cl)c(Cl)c1)CCNc1cc(N2CCCC2)nc(N2CCCC2)n1 [Example 55, N-(3,4-dichlorophenyl)-N′-{2-[{2-[(2,6-dipyrrolidin-1-ylpyrimidin-4-yl)amino]ethyl}(methyl)amino]ethyl}thiourea] | 
≤ 1 | 146 to 148 |  | CN(CCNC(=S)Nc1ccc([N+](=O)[O-])cc1)CCNc1cc(N2CCCC2)nc(N2CCCC2)n1 [Example 43, N-{2-[{2-[(2,6-dipyrrolidin-1-ylpyrimidin-4-yl)amino]ethyl}(methyl)amino]ethyl}-N′-(4-nitrophenyl)thiourea] | 
≤ 1 | 125 to 127 |  | CN(CCNC(=S)Nc1cccc([N+](=O)[O-])c1)CCNc1cc(N2CCCC2)nc(N2CCCC2)n1 [Example 49, N-{2-[{2-[(2,6-dipyrrolidin-1-ylpyrimidin-4-yl)amino]ethyl}(methyl)amino]ethyl}-N′-(3-nitrophenyl)thiourea] | 
≤ 5 | 124 to 126 |  | CN(CCNC(=S)Nc1cc(F)cc(F)c1)CCNc1cc(N2CCCC2)nc(N2CCCC2)n1 [Example 41, N-(3,5-difluorophenyl)-N′-{2-[{2-[(2,6-dipyrrolidin-1-ylpyrimidin-4-yl)amino]ethyl}(methyl)amino]ethyl}thiourea] | 
≤ 1 | 118 to 120 |  | CN(CCNC(=S)Nc1cccc(F)c1)CCNc1cc(N2CCCC2)nc(N2CCCC2)n1 [Example 39, N-{2-[{2-[(2,6-dipyrrolidin-1-ylpyrimidin-4-yl)amino]ethyl}(methyl)amino]ethyl}-N′-(3-fluorophenyl)thiourea] | 
≤ 1 | 133 to 135 |  | CN(CCNC(=S)Nc1ccc(F)c(F)c1)CCNc1cc(N2CCCC2)nc(N2CCCC2)n1 [Example 67, N-(3,4-difluorophenyl)-N′-{2-[{2-[(2,6-dipyrrolidin-1-ylpyrimidin-4-yl)amino]ethyl}(methyl)amino]ethyl}thiourea] | 

The next lines start with the compound.

SMILES | IC50 [1] [µM] | melting point [°C] | IC50 ([2]; DU-145, 96 h, 96 hours treatment) [µM] | IC50 ([2]; DU-145, 96 hours treatment) [µM]
CN(CCNC(=S)Nc1ccc(Sc2ncc(C(F)(F)F)cc2Cl)cc1)CCNc1cc(N2CCCC2)nc(N2CCCC2)n1 [Example 52, N-(4-{[3-chloro-5-(trifluoromethyl)pyridin-2-yl]thio}phenyl)-N′-{2-[{2-[(2,6-dipyrrolidin-1-ylpyrimidin-4-yl)amino]ethyl}(methyl)amino]ethyl}thiourea] | ≤ 1 | 97 to 99 |  | 
CN(CCNC(=S)Nc1ccc(Oc2ccc([N+](=O)[O-])cc2)cc1)CCNc1cc(N2CCCC2)nc(N2CCCC2)n1 [Example 45, N-{2-[{2-[(2,6-dipyrrolidin-1-ylpyrimidin-4-yl)amino]ethyl}(methyl)amino]ethyl}-N′-[4-(4-nitrophenoxy)phenyl]thiourea] | ≤ 5 |  | ≤ 5 | 
CN(CCNC(=O)NCc1ccco1)CCNc1cc(N2CCCC2)nc(N2CCCC2)n1 [Example 14, N-{2-[{2-[(2,6-dipyrrolidin-1-ylpyrimidin-4-yl)amino]ethyl}(methyl)amino]ethyl}-N′-(2-furylmethyl)urea] | ≤ 1 | 103 to 105 |  | 
CN(CCNC(=S)Nc1ccc(S(N)(=O)=O)cc1)CCNc1cc(N2CCCC2)nc(N2CCCC2)n1 [Example 61, 4-{[({2-[{2-[(2,6-dipyrrolidin-1-ylpyrimidin-4-yl)amino]ethyl}(methyl)amino]ethyl}amino)carbonothioyl]amino}benzenesulfonamide] | ≤ 1 | 140 |  | 
CN(CCNC(=NC#N)Nc1ccc(Cl)cc1)CCNc1cc(N2CCCC2)nc(N2CCCC2)n1 [Example 81, N-(4-chlorophenyl)-N″-cyano-N′-{2-[{2-[(2,6-dipyrrolidin-1-ylpyrimidin-4-yl)amino]ethyl}(methyl)amino]ethyl}guanidine] | ≤ 1 | 120 to 122 |  | 
CN(CCNC(=O)N[C@@H]1CCc2ccccc2C1)CCNc1cc(N2CCCC2)nc(N2CCCC2)n1 [Example 11] | ≤ 5 |  |  | ≤ 5
CCNC(=S)NCCN(C)CCNc1cc(N2CCCC2)nc(N2CCCC2)n1 [Example 28, N-{2-[{2-[(2,6-dipyrrolidin-1-ylpyrimidin-4-yl)amino]ethyl}(methyl)amino]ethyl}-N′-ethylthiourea] | ≤ 1 | 82 to 84 |  | 
CN(CCN)CCNc1cc(N2CCCC2)nc(N2CCCC2)n1 [Example 1, N-{2-[(2,6-dipyrrolidin-1-ylpyrimidin-4-yl)amino]ethyl}-N-methylethane-1,2-diamine] | ≤ 5 | 67 to 69 |  | 
CN(CCNC(=S)Nc1c(F)c(F)c(F)c(F)c1F)CCNc1cc(N2CCCC2)nc(N2CCCC2)n1 [Example 34, N-{2-[{2-[(2,6-dipyrrolidin-1-ylpyrimidin-4-yl)amino]ethyl}(methyl)amino]ethyl}-N′-(pentafluorophenyl)thiourea] | ≤ 5 | 92 to 94 |  | 
S=C(NCCCCCNc1cc(N2CCCC2)nc(N2CCCC2)n1)Nc1ccc(Cl)cc1 [Example 58, N-(4-chlorophenyl)-N′-{5-[(2,6-dipyrrolidin-1-ylpyrimidin-4-yl)amino]pentyl}thiourea] | ≤ 5 | 80 to 82 |  | 
CN(CCNC(=S)NCC1CCCO1)CCNc1cc(N2CCCC2)nc(N2CCCC2)n1 (centres unmarked) [Example 31, N-{2-[{2-[(2,6-dipyrrolidin-1-ylpyrimidin-4-yl)amino]ethyl}(methyl)amino]ethyl}-N′-(tetrahydrofuran-2-ylmethyl)thiourea] | ≤ 5 | 120 to 122 |  | 
CN(CCNC(=O)NCc1ccccc1)CCNc1cc(N2CCCC2)nc(N2CCCC2)n1 [Example 8, N-benzyl-N′-{2-[{2-[(2,6-dipyrrolidin-1-ylpyrimidin-4-yl)amino]ethyl}(methyl)amino]ethyl}urea] | ≤ 5 | 87 to 89 |  | 
O=C(NCCOCCNc1cc(N2CCCC2)nc(N2CCCC2)n1)Nc1ccc(Cl)c(C(F)(F)F)c1 [Example 20, N-[4-chloro-3-(trifluoromethyl)phenyl]-N′-(2-{2-[(2,6-dipyrrolidin-1-ylpyrimidin-4-yl)amino]ethoxy}ethyl)urea] | ≤ 5 | 79 to 81 |  | 
CN(CCNC(=O)NC1CCCC1)CCNc1cc(N2CCCC2)nc(N2CCCC2)n1 [Example 12, N-cyclopentyl-N′-{2-[{2-[(2,6-dipyrrolidin-1-ylpyrimidin-4-yl)amino]ethyl}(methyl)amino]ethyl}urea] | ≤ 5 | 119 to 121 |  | 
